Blank lines part the entries; values can stand above or below the compound they belong to.
Assays:
[1] = system: chorioallantoic membrane of a fertilized chicken egg; assay: In vitro ocular tolerance HET-CAM test; conditions: 300 μL, first 5 min
Method: In vitro ocular tolerance was assessed using the HET-CAM test to ensure that the formulations of Loaded Lipid Nanoparticles were non-irritating when administered as eye-drops. Irritation, coagulation, and haemorrhage phenomena were measured by applying 300 μL of the formulation studied on chorioallantoic membrane of a fertilized chicken egg and monitoring it during the first 5 min after the application. This assay was conducted according to the guidelines of ICCVAM (The Interagency Coordinating Committee on the Validation of Alternative Methods). The development of the test was carried out using 3 eggs for each group (free APG, Loaded Lipid Nanoparticles, positive control (NaOH 0.1 M) and negative control (0.9% NaCl)). The ocular irritation index (OII) was calculated by the sum of the scores of each injury according to the following expression (Eq 3):
[formula] • where H, V and C are times (s) until the start of haemorrhage (H), vasoconstriction (V) and coagulation (C), respectively. The formulations were classified according to the following: OII≤0.9 non-irritating; 0.9<OII≤4.9 weakly irritating; 4.9<OII≤8.9 moderately irritating; 8.9<OII≤21 irritating.

[2] = In vitro APG release, Franz-type diffusion cells; type: in vitro ADME
Method: The in vitro APG release test for Loaded Lipid Nanoparticles was performed using Franz-type diffusion cells (Crown Glass, NY, USA) with a diffusion area of 0.20 cm^2 and dialysis membranes of cellulose (MWCO 12 kDa). A solution of PBS with 5% polysorbate 80 and 20% ethanol under continuous stirring was used as a receptor medium assuring sink conditions (ability of the medium to dissolve the expected amount of drug). The formulations were compared with free-APG solution. The assay was carried out at 32±0.5° C. along 48 h. 300 μL of each formulation were added to the donor compartment by direct contact with the membrane. At a certain timepoints, 150 μL of sample were collected with a syringe and the volume withdrawn was replaced with receptor solution. Drug content of the samples was analysed with HPLC. The test was performed by triplicate, and the cumulative amount of APG was calculated.

[3] = system: chorioallantoic membrane of a fertilized chicken egg; assay: Trypan blue staining (TBS) of the CAM; conditions: after HET-CAM
Method: Furthermore, at the end of the HET-CAM experiment, in order to quantify the damage of the membrane, trypan blue staining (TBS) was applied. The CAM was treated with 1000 μL of 0.1% trypan blue solution for 1 min. Excess dye was rinsed off with distilled water. The dyed CAM was excised and extracted with 5 mL formamide, and the absorbance of the extract was measured spectrophotometrically at 595 nm. The absorbed trypan blue was determined from a calibration curve of trypan blue in formamide.

[4] = system: New Zealand male albino rabbits; assay: In vivo primary eye irritation test of Draize; set-up: species or system rabbit
Method: All of the procedures were approved by the Ethical Committee for Animal Experimentation of the UB and current legislation (Decree 214/97, Gencat). The formulations were evaluated using primary eye irritation test of Draize to ensure the results obtained from the […] test. For this experiment, New Zealand male albino rabbits (2.0-2.5 kg, San Bernardo farm, Navarra, Spain) were used. 50 μL of each sample were instilled in the ocular conjunctival sac (n=3/group) and a mild massage was applied to guarantee the passage of the sample through the eyeball. […] The opposite untreated eye was used as a negative control. Draize test score was determined directly by observing the anterior segment of the eye and changes in the structures of the cornea (turbidity or opacity), iris and conjunctiva (congestion, chemosis, swelling and secretion).

[5] = system: dry eye induced by 0.1% benzalkonium chloride; assay: Dry eye disease model, Schirmer test (aqueous tear production); type: in vivo, New Zealand white rabbits; conditions: twice-daily topical, one week
Method: In order to evaluate the potential to treat dry eye of Loaded Lipid Nanoparticles, Schirmer test, fluorescein and Bengal rose assessments were performed against Lipid Nanoparticles, free APG and 0.15% hyaluronic acid (commercial solution Hyabak®). Twelve male New Zealand white rabbits (purchased from Livestock Research Institute, Council of Agriculture, Executive Yuan, Taiwan) weighing between 2.0 and 2.5 kg were used for the study. The rabbits were randomly divided into 4 groups: Lipid Nanoparticles, Loaded Lipid Nanoparticles, free APG solution and 0.15% hyaluronic acid (commercial solution (Hyabak®). All rabbits were housed at a room temperature of 23±2° C. with relative humidity 75±10% and alternating 12-hour light-dark cycles (8 a.m. to 8 p.m.). Both eyes of each rabbit were treated twice-daily by a topical administration of 0.1% benzalkonium chloride (BAC) drops for 2 weeks. On day 14, DES was confirmed by Schirmer test, fluorescein and Bengal rose staining. The treatment began after the confirmation of DES, where on eye of each rabbit was chosen randomly for twice-daily topical administration of Lipid Nanoparticles, Loaded Lipid Nanoparticles, free APG solution and a commercial solution. […] Tear production was measured using Schirmer test strips. […] After 5 min, the wetted length (mm) of the paper strips was recorded.

[6] = system: dry eye induced by 0.1% benzalkonium chloride; assay: Dry eye disease model, fluorescein staining of the ocular surface; type: in vivo, New Zealand white rabbits; conditions: twice-daily topical, one week
Method: In order to evaluate the potential to treat dry eye of Loaded Lipid Nanoparticles, Schirmer test, fluorescein and Bengal rose assessments were performed against Lipid Nanoparticles, free APG and 0.15% hyaluronic acid (commercial solution Hyabak®). Twelve male New Zealand white rabbits (purchased from Livestock Research Institute, Council of Agriculture, Executive Yuan, Taiwan) weighing between 2.0 and 2.5 kg were used for the study. The rabbits were randomly divided into 4 groups: Lipid Nanoparticles, Loaded Lipid Nanoparticles, free APG solution and 0.15% hyaluronic acid (commercial solution (Hyabak®). All rabbits were housed at a room temperature of 23±2° C. with relative humidity 75±10% and alternating 12-hour light-dark cycles (8 a.m. to 8 p.m.). Both eyes of each rabbit were treated twice-daily by a topical administration of 0.1% benzalkonium chloride (BAC) drops for 2 weeks. On day 14, DES was confirmed by Schirmer test, fluorescein and Bengal rose staining. The treatment began after the confirmation of DES, where on eye of each rabbit was chosen randomly for twice-daily topical administration of Lipid Nanoparticles, Loaded Lipid Nanoparticles, free APG solution and a commercial solution. After one week of treatment, Schirmer test, fluorescein and Bengal rose staining were performed. Fluorescein staining is an effective method for ocular surface evaluation. […]

HCE-2 cells = assay: MTT cell viability in corneal cells; type: cell-based, human; conditions: 5- and 15-minutes incubation
Method: (§1) Human corneal epithelial cells (HCE-2) (LGC Standards, Barcelona, Spain) were cultured in keratinocyte serum-free growth medium (SFM; Life Technologies, Invitrogen, GIBCO®, Paisley, UK)). It was supplemented with bovine pituitary extract 0.05 mg·mL^−1 and epidermal growth factor 5 ng·mL^−1 containing insulin 0.005 mg·mL^−1 and penicillin 100 U·mL^−1 plus streptomycin […]. Cells were grown on a culture flask to 80% confluency in a humidified 10% CO2 atmosphere at 37° C. Human UM 92-1 cells were maintained in RPMI-1640 medium, added with 10% fetal bovine serum (FBS), 2 mM L-glutamine, 100 units/mL penicillin and […] streptomycin. For MTT assay, passages from 10 to 13 were used. All the cells were incubated at 37° C. and 10% CO2 [28].
(§2) Cytotoxicity of Loaded Lipid Nanoparticles and Lipid Nanoparticles was determined by MTT (3-(4,5-Dimethylthiazol-2-yl)-2,5-diphenyl tetrazolium bromide) assay, by reduction of tetrazolium salt by intracellular dehydrogenases of viable living cells. […] Cell viability was then measured at wavelength of 560 nm in a Modulus® Microplate Photometer (Turner BioSystems Inc., Sunnyvale, CA, USA). Results were expressed as percentage of cell survival relative to untreated cells.
The cytotoxicity of several concentrations of free APG, Loaded Lipid Nanoparticles, and the Lipid Nanoparticles (without APG) were evaluated on HCE-2 cells. […]

UM 92.1 cancer cells = assay: MTT cytotoxic capacity in ocular tumoral cells; type: cell-based, human; conditions: 0.005-0.05 mg/mL, 24 h
Method: as §1
as §2, with “untreated cells. […]” for “untreated cells.”

CAM of embryonated eggs = assay: Antiangiogenic activity, modified CAM test; set-up: species or system chicken; conditions: 40 μL, 48 h
Method: To determine the antiangiogenic effects of Loaded Lipid Nanoparticles, a modified choriolantoic membrane (CAM) test was used. It was carried out using fertilised chicken eggs incubated at 37° C. and 85% humidity from the farm […] (Tarragona, Spain). A lateral window was opened on the eggshell on the 3rd day of incubation and after 24 h of stabilization, 40 μL of the sample were inoculated to the CAM. Afterwards the membrane was sealed and incubated for 48 h. The controls of the experiments were NaCl as a normal angiogenic development, and basic fibroblast growth factor (bFGF) as a pro-angiogenic control (20 μL at 10 ng·mL^-1). Once CAM were evaluated, membranes were fixed by adding 4% paraformaldehyde overnight at 4° C. Next, membranes were extracted and observed using a binocular loupe. Afterwards, the obtained images were processed and the density of the vessels in the CAM was automatically measured using ImageJ vessel analysis plugin [34].

[7] = system: ocular inflammation induced by sodium arachidonate; assay: In vivo anti-inflammatory treatment study (sodium arachidonate); set-up: species or system New Zealand male albino rabbits; conditions: applied 30 min after SA
Method: In vivo anti-inflammatory effectiveness was carried out throughout the evaluation test for the inflammation prevention ability and the anti-inflammatory efficacy. Assays were carried out using New Zealand male albino rabbits (n=3/group), described previously. The activity of Loaded Lipid Nanoparticles in comparison with free APG, Lipid Nanoparticles, and NaCl 0.9% (control group) was measured. The inflammation prevention study consisted of the ocular application of 50 μL of each formulation. After 30 min of exposure, an inflammatory stimulus, 50 μL of 0.5% sodium arachidonate (SA) dissolved in PBS, was instilled in the right eye and the left eye was used as a control. In the anti-inflammatory treatment study, the inflammatory stimulus was applied 30 min before than the application of each formulation tested. The evaluation of prevention and treatment of each formulation were carried out from the first application up to 210 min, according to the Draize modified test scoring system.

[8] = concentration of 0.5%; cited from earlier work

Structure (SMILES): [Na+].[OH-] [NaOH]
HET-CAM irritation classification [1]: severe irritant

in vitro release profile ([2]; 48 h): faster release | APG released ([2]; at 24 h, 32° C., PBS with 5% polysorbate 80 and 20% ethanol): 100%
Structure (SMILES): O=c1cc(-c2ccc(O)cc2)oc2cc(O)cc(O)c12 [free APG, Apigenin]
TBS quantitative result (irritancy) [3]: irritant | Draize test irritancy in vivo ([4]; 50 μL in conjunctival sac): non-irritant | discomfort after instillation ([4]; in vivo): caused an initial discomfort | tear flow (Schirmer test) versus dry eye group [5]: did not improve the tear flow | fluorescein staining score, corneal surface [6]: worse punctuation in the staining | cell viability (HCE-2 cells): ≥ 80% | cell viability / toxicity (HCE-2 cells; all the tested concentrations): did not show toxicity | cytotoxicity against cancer cells (UM 92.1 cancer cells): significant toxicity | vascular density versus negative control (NaCl) (CAM of embryonated eggs): not significant | inflammation treatment effect [7]: able to treat fast the inflammation

Structure (SMILES): CCCCCCCCCCCCCCCCCC[N+](C)(C)CCCCCCCCCCCCCCCCCC.[Br-] [DDAB, dimethyldioctadecylammonium bromide]
toxicity in ocular delivery [8]: had not shown any toxicity

— patent US20260232590A1, “LIPID NANOPARTICLES FOR THE TREATMENT OF OCULAR DISEASES” (UNIVERSITAT DE BARCELONA, priority 2023, published 2026)
